{"source": "patent US7166621B2", "about": "“Pyridyloxyalkanoic acid amide derivatives useful as fungicides” (priority 2001, dated 2007)", "key": {"Phytophthora infestans": {"tested_on": "Phytophthora infestans", "test": "whole plant or invertebrate", "format": "in vivo", "settings": "in Solanum lycopersicum, foliar, 96 h, read-out: control of Phytophthora infestans"}, "Plasmopara viticola": {"tested_on": "Plasmopara viticola", "test": "Leaf disk assay, downy mildew of grapevine, preventive fungicidal activity", "format": "in vivo", "settings": "foliar, 168 h"}, "[1]": {"settings": "grapevine leaf disks, preventive, assessed seven days after inoculation"}}}
{"smiles": "CCC#CC(C)(C)NC(=O)C(CC)Oc1cncc(C(=O)O)c1", "note": "(centres unmarked)", "values": [{"measurement": "melting point", "value": "162 to 164", "unit": "°C"}]}
{"smiles": "CC#CC(C)(C)NC(=O)C(CC)Oc1cncc(Br)c1", "note": "(single isomer, unassigned; (-)) [(−) isomer of Compound 13 of Table 1, (−) 2-(5-bromo-3-pyridyloxy)-N-(4-methylpent-2-yn-4-yl)butyramide]", "values": [{"measurement": "pest or weed control at 200 ppm", "setting": "Phytophthora infestans", "value": "≥ 70", "unit": "%"}]}
{"smiles": "CCC#CC(C)(C)NC(=O)C(CC)Oc1cncc(Cl)c1", "note": "(centres unmarked) [Compound No. 1 of Table 1, 2-(5-chloro-3-pyridyloxy)N-(2-methylhex-3-yn-2-yl)butyramide]", "values": [{"measurement": "pest or weed control at 200 ppm", "setting": "Plasmopara viticola; [1]", "value": "≥ 70", "unit": "%"}]}
{"smiles": "CC#CC(C)(C)NC(=O)C(CCC)Oc1cncc(Cl)c1", "note": "(centres unmarked) [Compound No. 3 of Table 1, 2-(5chloro-3-pyridyloxy)-N-(2-methylpent-3-yn-2-yl)valeramide]", "values": [{"measurement": "pest or weed control at 200 ppm", "setting": "Phytophthora infestans", "value": "≥ 70", "unit": "%"}, {"measurement": "pest or weed control at 200 ppm", "setting": "Plasmopara viticola; [1]", "value": "≥ 70", "unit": "%"}]}
{"smiles": "CC#CC(C)(C)NC(=O)C(CC)Oc1cncc(Cl)c1", "note": "(centres unmarked) [Compound No. 8 of Table 1, 2-(5-chloro-3-pyridyloxy)-N-(2-methylpent-3-yn-2-yl)butyramide]", "values": [{"measurement": "pest or weed control at 200 ppm", "setting": "Plasmopara viticola; [1]", "value": "≥ 70", "unit": "%"}]}
{"smiles": "CC#CC(C)(C)N(C)C(=O)C(CC)Oc1cncc(Cl)c1", "note": "(centres unmarked) [Compound No. 10 of Table 1, 2-(5-chloro-3-pyridyloxy)-N-methyl-N-(2-methylpent-3-yn-2-yl)butyramide]", "values": [{"measurement": "pest or weed control at 200 ppm", "setting": "Plasmopara viticola; [1]", "value": "≥ 70", "unit": "%"}]}
{"smiles": "CC#CC(C)(C)NC(=O)Cc1ccccc1Oc1cncc(Cl)c1", "note": "[Compound No. 11 of Table 1, 2-(5-chloro-3-pyridyloxy)-N-(2-methylpent-3-yn-2-yl)phenylacetamide]", "values": [{"measurement": "pest or weed control at 200 ppm", "setting": "Phytophthora infestans", "value": "≥ 70", "unit": "%"}]}
{"smiles": "CC#CC(C)(C)NC(=O)C(CC)Oc1cncc(Br)c1", "note": "(centres unmarked) [Compound No. 13 of Table 1, 2-(5-bromo-3-pyridyloxy)-N-(2-methylpent-3-yn-2-yl)butyramide]", "values": [{"measurement": "pest or weed control at 200 ppm", "setting": "Plasmopara viticola; [1]", "value": "≥ 70", "unit": "%"}]}
{"smiles": "CCC#CC(C)(C)NC(=O)C(CC)Oc1cncc(Br)c1", "note": "(centres unmarked) [Compound No. 14 of Table 1, 2-(5-bromo-3-pyridyloxy)-N-(2-methylhex-3-yn-2-yl)butyramide]", "values": [{"measurement": "pest or weed control at 200 ppm", "setting": "Plasmopara viticola; [1]", "value": "≥ 70", "unit": "%"}]}
{"smiles": "CCC#CC(C)(C)NC(=O)C(CC)Oc1cncc(C(=O)N(C(C)C)C(C)C)c1", "note": "(centres unmarked) [Compound No. 15 of Table 1, 2-(5-(N,N-diisopropylaminocarbonyl)-3-pyridyloxy)-N-(5-methylhex-3-yn-5-yl)butyramide]", "values": [{"measurement": "pest or weed control at 200 ppm", "setting": "Phytophthora infestans", "value": "≥ 70", "unit": "%"}, {"measurement": "pest or weed control at 200 ppm", "setting": "Plasmopara viticola; [1]", "value": "≥ 70", "unit": "%"}]}
{"smiles": "CC#CC(C)(C)NC(=O)C(COC)Oc1cncc(Cl)c1", "note": "(centres unmarked) [Compound No. 21 of Table 1, 2-(5-chloro-3-pyridyloxy)-N-(4-methylpent-2-yn-4-yl)-3-methoxypropionamide]", "values": [{"measurement": "pest or weed control at 200 ppm", "setting": "Plasmopara viticola", "value": "≥ 70", "unit": "%"}]}
{"smiles": "CCC(Oc1cncc(Cl)c1)C(=O)NC(C#CC(C)C)OC", "note": "(centres unmarked) [Compound No. 49 of Table 1, 2-(5-chloro-3-pyridyloxy)-N-(1-methoxy-4-methylpent-2-ynyl)butyramide]", "values": [{"measurement": "pest or weed control at 200 ppm", "setting": "Plasmopara viticola", "value": "≥ 70", "unit": "%"}]}
{"smiles": "CCCC#CC(C)(C)NC(=O)C(CC)Oc1cncc(Cl)c1", "note": "(centres unmarked) [Compound No. 120 of Table 1, 2-(5-chloro-3-pyridyloxy)-N-(6-methylhept-4-yn-6-yl)butyramide]", "values": [{"measurement": "pest or weed control at 200 ppm", "setting": "Plasmopara viticola; [1]", "value": "≥ 70", "unit": "%"}, {"measurement": "melting point", "value": "70 to 71", "unit": "°C"}]}
{"smiles": "CCCC#CC(C)(C)NC(=O)C(CC)Oc1cncc(Br)c1", "note": "(centres unmarked) [Compound No. 128 of Table 1, 2-(5-bromo-3-pyridyloxy)-N-(6-methylhept4-yn-6-yl)butyramide]", "values": [{"measurement": "pest or weed control at 200 ppm", "setting": "Phytophthora infestans", "value": "≥ 70", "unit": "%"}, {"measurement": "pest or weed control at 200 ppm", "setting": "Plasmopara viticola; [1]", "value": "≥ 70", "unit": "%"}]}
{"smiles": "CC#CC(C)(CC)NC(=O)C(CC)Oc1cncc(Cl)c1", "note": "(centres unmarked) [Compound No. 136 of Table 1, 2-(5chloro-3-pyridyloxy)-N-(4methylhex-2-yn-4-yl)butyramide]", "values": [{"measurement": "pest or weed control at 200 ppm", "setting": "Plasmopara viticola; [1]", "value": "≥ 70", "unit": "%"}]}
{"smiles": "CC#CC(C)(C)NC(=O)C(CC)Oc1cnc(Cl)c(Cl)c1", "note": "(centres unmarked) [Compound No. 247 of Table 1, 2-(5,6-dichloro-3-pyridyloxy)-N-(4-methylpent-2-yn-4-yl)butyramide]", "values": [{"measurement": "pest or weed control at 200 ppm", "setting": "Plasmopara viticola", "value": "≥ 70", "unit": "%"}]}
{"smiles": "CCC(Oc1cnc(Cl)c(Cl)c1)C(=O)NC(C)(C)C#CCOC", "note": "(centres unmarked) [Compound No. 259 of Table 1, 2-(5,6-dichloro-3-pyridyloxy)-N-(1-methoxy-4-methylpent-2-yn-4-yl)butyramide]", "values": [{"measurement": "pest or weed control at 200 ppm", "setting": "Plasmopara viticola", "value": "≥ 70", "unit": "%"}]}
{"smiles": "CC#CC(C)(C)NC(=O)C(CC)Oc1cncc(Oc2ccccc2)c1SC", "note": "(centres unmarked) [Compound No. 263 of Table 1, 2-(4-methylthio-5-phenoxy-3-pyridyloxy)-N-(4-methylpent-2-yn-4-yl)butyramide]", "values": [{"measurement": "pest or weed control at 200 ppm", "setting": "Phytophthora infestans", "value": "≥ 70", "unit": "%"}, {"measurement": "pest or weed control at 200 ppm", "setting": "Plasmopara viticola", "value": "≥ 70", "unit": "%"}]}
{"smiles": "CC#CC(C)(C)NC(=O)C(CC)Oc1cncc(C(C)=O)c1", "note": "(centres unmarked) [Compound No. 326 of Table 1, 2-(5-acetyl-3-pyridyloxy)-N-(4-methylpent-2-yn-4-yl)butyramide]", "values": [{"measurement": "pest or weed control at 200 ppm", "setting": "Phytophthora infestans", "value": "≥ 70", "unit": "%"}]}
{"smiles": "CC#CC(C)(C)NC(=O)C(CC)Oc1cncc(C#N)c1", "note": "(centres unmarked) [Compound No. 342 of Table 1, 2-(5-cyano-3-pyridyloxy)-N-(4-methylpent-2-yn-4-yl)butyramide]", "values": [{"measurement": "pest or weed control at 200 ppm", "setting": "Phytophthora infestans", "value": "≥ 70", "unit": "%"}, {"measurement": "pest or weed control at 200 ppm", "setting": "Plasmopara viticola", "value": "≥ 70", "unit": "%"}]}
{"smiles": "C#Cc1cncc(OC(CC)C(=O)NC(C)(C)C#CC)c1", "note": "(centres unmarked) [Compound No. 358 of Table 1, 2-(5-ethynyl-3-pyridyloxy)-N-(4-methylpent-2-yn-4-yl)butyramide]", "values": [{"measurement": "pest or weed control at 200 ppm", "setting": "Plasmopara viticola", "value": "≥ 70", "unit": "%"}]}
{"smiles": "C=Cc1cncc(OC(CC)C(=O)NC(C)(C)C#CC)c1", "note": "(centres unmarked) [Compound No. 374 of Table 1, 2-(5-ethenyl-3-pyridyloxy)-N-(4-methylpent-2-yn-4-yl)butyramide]", "values": [{"measurement": "pest or weed control at 200 ppm", "setting": "Phytophthora infestans", "value": "≥ 70", "unit": "%"}]}
{"smiles": "C=C(OCC)c1cncc(OC(CC)C(=O)NC(C)(C)C#CC)c1", "note": "(centres unmarked) [Compound No. 378 of Table 1, 2-[5-(1-ethoxyethen-1-yl)-3-pyridyloxy]-N-(4-methylpent-2-yn-4-yl)butyramide]", "values": [{"measurement": "pest or weed control at 200 ppm", "setting": "Phytophthora infestans", "value": "≥ 70", "unit": "%"}]}
